“Also recorded” adds a separate entry of the source.
What was measured:
Format in all cases: physicochemical
[1] = Separation of switchable solvent from soybean oil with CO2/carbonated water (Examples 2A, 2C)
Protocol: A 4 mL vial was prepared containing 1.0 mL D2O, 0.5 mL BA and 0.5 mL soybean oil. The vial was shaken thoroughly and allowed to settle, showing a 1.0 mL upper layer (soybean oil and BA) and a 1.0 mL lower layer (D2O). ^1H NMR samples (50 μL) were withdrawn from each layer and mixed with methanol-d4 (0.5 mL) containing a dioxane internal standard (51.5 mM). Another sample was withdrawn from the upper layer for ^1H NMR analysis in CDCl3, because soybean oil is not miscible with methanol. The same volume was discarded from the bottom layer to maintain the initial ratio.
CO2 was bubbled through the system for 1.5 h, at which time the top layer appeared to have halved in volume. Using the same system, ^1H NMR analysis was again conducted on both layers, the bottom layer in methanol-d4 and the top layer in CDCl3.
A 1.0 mL portion of the bottom layer was withdrawn and transferred to a new 4.0 mL vial. A magnetic stirrer was added and the vial was stirred at 80° C. for 1 h. Samples were withdrawn from both layers for ^1H NMR analysis in methanol-d4 with reference to the dioxane internal standard.
The switching behavior of BA in the presence of soybean oil was studied qualitatively and by ^1H NMR spectroscopy as shown in FIG. 11. The top spectrum is that of soy oil. The middle spectrum is that of the upper (organic) phase after the mixing of the BA, soy oil and D2O. This upper phase comprises soy oil and BA. The bottom spectrum is that of the upper (organic) phase after the addition of the CO2 trigger and comprises predominantly soy oil and any residual solvent.
The most informative ^1H NMR spectra in this experiment were those showing the separation of the soy oil and BA. Based on the integration of the peak corresponding to BA at 3.17 ppm in these spectra, 96% of the amidine was removed from the upper soybean oil layer after switching to its hydrophilic BAB form. Other spectra (not shown), collected in methanol-d4 with a dioxane internal standard, confirmed the switching behavior presented in Example 1 above, showing 11% retention of BA in the aqueous phase after heating.
It was possible to remove a high percentage of N1,N1,N4,N4-tetraethylbutane-1,4-diamine from the soybean oil be mixing with carbonated water. The percentage removal was 98.65%. In contrast, 96% of BA was removed from the soybean oil.

[2] = Qualitative switchability assessment of BA (Example 1B)
Excerpt: The BA amidine's ability to act as a switchable hydrophilicity solvent for the separation of a selected substance is dependent on its ability to switch from the hydrophobic form to a hydrophilic form. This is achieved by adding water to provide an aqueous layer and decreasing the pH of the aqueous layer, namely by dissolving CO2 in the aqueous layer. When carbon dioxide dissolves in water, it forms carbonic acid with pKa1 of 6.4. The resultant dissociation is sufficient to protonate a hydrophobic amidine, causing it to become charged forming a hydrophilic amidinium bicarbonate (BAB). In this preliminary switching study, the amidine's ability to act as a base and its ability to switch hydrophilicity were studied.
Switching behavior was studied for BA over various periods of time. A glass vial (4 mL) was prepared, containing distilled water (1.0 mL) and BA amidine (0.5 mL).
CO2 was bubbled through the vial for roughly 30 minutes, until the top layer had disappeared showing that a hydrophilic solution of BAB in water had been formed.
A magnetic stirrer was placed in the vial. The vial was suspended in an 80° C. oil bath and stirred. The vial was intermittently removed from the bath and monitored for the presence of a second layer after 20, 50 and 75 minutes. The formation of a second layer (hydrophobic BA) was noted after 20 minutes in the oil bath.

[3] = Regeneration of BA from aqueous BAB using air (Example 1C)
Protocol: Switching behavior was studied for an aqueous solution of BAB. A glass vial (4 mL) was prepared, containing distilled water (1.0 mL) and BA (1.0 mL) as a two-phase mixture. CO2 was bubbled through the vial for roughly 30 minutes, until the top layer had disappeared showing that a single-phase solution of BAB in water had been formed.
Air was then bubbled through the same glass vial with the single-phase solution for approximately 5 hours at room temperature to displace CO2 from the solution. The formation of a second layer (hydrophobic BA) was noted.

[4] = Quantitative switching study of BA by 1H NMR (Example 1D)
Protocol: A methanol-d4 solution was prepared containing a sodium acetate internal standard (48.8 mM).
Two 4 mL glass vials containing 1.0 mL D2O and 0.5 mL BA were prepared and shaken. A 50 μL sample was withdrawn from each layer of one vial and combined with 0.50 mL of the sodium acetate standard solution in each of two NMR tubes: the top layer (BA) in a first tube; the bottom layer (aqueous) in a second tube.
Carbon dioxide was bubbled through the unsampled vial until the BA had completely converted to BAB, as evidenced by the disappearance of the top layer. The pH of the solution was measured using pH paper to be approximately 8-9. A 50 μL sample was withdrawn from the BAB/D2O solution and added to 0.50 mL of the sodium acetate standard solution in a third NMR tube.
The 4.0 mL vial from which the last NMR sample was withdrawn was then heated at 80° C. for 1 h and stirred by a magnetic stirrer. Bubbles of CO2 were observed escaping from the solution and a top layer, hydrophobic amidine, appeared. After cooling the vial to room temperature, a 50 μL sample was withdrawn from each layer and combined with 0.50 mL of the sodium acetate standard in two NMR tubes: the top layer (BA) in a fourth tube; the bottom layer (aqueous) in a fifth tube.
The NMR spectra of all five samples are shown in FIG. 10 with the first to fifth tubes shown from top to bottom. […] In addition, using the ‘c’ and ‘d’ protons provided stronger signals, to improve accuracy. Based on the strength of the ‘c’ and ‘d’ signals, 11% of the BA remained in the aqueous phase as BAB after the experiment
Using dioxane as the internal standard gave the same results (11% BAB retention in the aqueous phase) as sodium acetate.
The same experiment was repeated except that the temperature of the heating of the 4.0 mL vial was increased from 80° C. to 90° C. A similar retention of BAB in the aqueous phase (12%) was observed.

For `CCCCN=C(CCCC)N(CCCC)CCCC` [BA, N,N,N′-tributylpentanamidine], which “solvent removed from soybean oil after switching to hydrophilic form” value ([1]; CO2 / carbonated water) is on record?
The value was 96%.

What about the “miscibility with soybean oil” value ([1]; neutral hydrophobic form) of the same compound?
Its value is “miscible with soy oil; also recorded: miscible with soybean oil”.

What about the “retention of BA in the aqueous phase after heating” value ([1]; soybean oil experiment, 80 °C, 1 h, dioxane internal standard) of the same compound?
Its value is 11%.

What about the “time of CO2 bubbling until top layer disappeared” value ([2]; 1.0 mL water + 0.5 mL BA) of the same compound?
The value was “roughly 30 minutes”.

And the “heating time to formation of second (hydrophobic) layer” value ([2]; 80 °C oil bath, stirred)?
Its value is 20 min.

And the “time of CO2 bubbling until top layer disappeared” value ([3]; 1.0 mL water + 1.0 mL BA)?
The value was “roughly 30 minutes”.

What about the “time of air bubbling after which second layer was noted” value ([3]; room temperature) of the same compound?
Its value is “approximately 5 hours”.

And the “BA remaining in the aqueous phase as BAB after heating” value ([4]; 80 °C, 1 h, sodium acetate internal standard)?
Its value is 11%.

What about the “BA recovered when amidinium bicarbonate solution is heated” value ([4]; from 1H NMR peak integrations) of the same compound?
Its value is 89%.

Reference: patent US8900444B2, “Switchable hydrophilicity solvents and methods of use thereof” (Queen's University at Kingston, priority 2009, dated 2014)
